Patent US9878999B2, “Proteasome chymotrypsin-like inhibition using PI-1833 analogs” (H. Lee Moffitt Cancer Center and Research Institute, Inc., priority 2011, dated 2018)
Several values for one entry are separate records, joined by “and”; a condition that tells them apart may be missing. Equal entries are not always repeated. Where two headings read alike, the source gives them in different places. Blank lines part the entries; values can stand above or below the compound they belong to.

What was measured:
[1] = molecular target: T1, CT-L activity in human breast cancer MDA-MB-468 cells (Homo sapiens, UniProt P20618+P28074); assay: whole cell CT-L activity in MDA-MB-468 cells; format: cell-based
T1 construct: endogenous in cells; host or cells: MDA-MB-468

[2] = molecular target: CT-L activity of purified 20S proteasome (Homo sapiens, UniProt P20618+P28074); assay: in vitro CT-L activity of purified 20S proteasome; format: biochemical; settings: for fold loss of CT-L activity: compared to 1; for Screening Results (% Inhibition @ 10 μM) Chymotrypsin-like / inhibition at 10 µM: Table 5, @ 10 μM; for inhibition at 10 µM: read-out: Screening Results (% Inhibition @ 10 μM) Chymotrypsin-like
[3] = Table 1, read-out: IC50 (μM) Chymotrypsin-like activity
[4] = Table 2, read-out: IC50 (μM) Chymotrypsin-like activity
[5] = Table 7, 20S CT-L proteasome activity, read-out: IC50 (μM) CT-L
[6] = Table 5, read-out: IC50 (μM) Chymotrypsin-like

IC50 [2, 3]: 0.857 ± 0.35 µM
IC50 ([2]; read-out: IC50, in vitro CT-L): ~1 µM
SMILES: CC(C)N(Cc1nc(-c2ccc(Cl)cc2)no1)C(=O)COc1ccc(C(F)(F)F)cc1 [11d, N-((3-(4-chlorophenyl)-1,2,4-oxadiazol-5-yl)methyl)-N-isopropyl-2-(4-(trifluoromethyl)phenoxy)acetamide]

IC50 [2, 3]: 15.1 ± 6.94 µM
fold loss of CT-L activity [2]: 25 fold
IC50 ([2]; read-out: IC50, in vitro CT-L): 15 µM
SMILES: CC(C)N(Cc1nc(-c2ccc(C(F)(F)F)cc2)no1)C(=O)COc1ccccc1 [11l, N-Isopropyl-2-phenoxy-N-((3-(4-(trifluoromethyl)phenyl)-1,2,4-oxadiazol-5-yl)methyl)acetamide]

fold loss of CT-L activity [2]: 10 fold
IC50 ([2]; read-out: IC50, in vitro CT-L): 6.22 µM
SMILES: CC(C)N(Cc1nc(-c2ccccc2)no1)C(=O)COc1ccccc1 [11j, N-Isopropyl-2-phenoxy-N-((3-phenyl-1,2,4-oxadiazol-5-yl)methyl)acetamide]

CT-L inhibitory activity, in words [2]: failed to retain the activity
IC50 [2, 3]: 4 ± 0.89 µM
SMILES: Cc1ccc(OCC(=O)N(Cc2nc(-c3ccccc3)no2)C(C)C)cn1 [11z, N-Isopropyl-2-(60methylpyridin-3-yloxy)-N-((3-phenyl-1,2,4-oxadiazol-5-yl)methyl)acetamide]

IC50 [2, 3]: 0.98 ± 0.5 µM
IC50 ([2]; read-out: IC50, in vitro CT-L): ~1 µM
SMILES: CC(C)N(Cc1nc(-c2cccnc2)no1)C(=O)COc1ccc(O)cc1 [11u]

IC50 ([2]; read-out: IC50, in vitro CT-L): 0.289 µM
SMILES: CCCc1ccc(OC(C)C(=O)N(Cc2nc(-c3cccnc3)no2)C(C)C)cc1 (racemic) [16d, N-Isopropyl-2-(4-propylphenoxy)-N-((3-(pyridine-3-yl)-1,2,4-oxadiazol-5-yl)methyl)propanamide]

IC50 [2, 4]: 29.9 ± 3.9 µM
SMILES: Cc1ccc(OCC(=O)N(C)Cc2nc(-c3ccc(C)cc3)no2)cc1 [12c, N-Methyl-N-((3-p-tolyl-1,2,4-oxadiazol-5-yl)methyl)-2-(p-tolyloxy)acetamide]

melting point: 211.3 to 213.8 °C
IC50 [2, 3]: 27.8 ± 20.8 µM
IC50 ([2]; read-out: IC50, in vitro CT-L): 27 µM
SMILES: CC(C)N(Cc1nc(-c2ccccc2)no1)C(=O)COc1ccc(C(=O)O)cc1 [11t, 4-(2-(Isopropyl((3-phenyl-1,2,4-oxadiazol-5-yl)methyl)amino)-2-oxoethoxy)benzoic acid]

IC50 ([2]; read-out: IC50, in vitro CT-L): 0.032 µM
SMILES: CCCc1ccc(OCC(=O)N(Cc2nc(-c3cncnc3)no2)C(C)C)cc1 [11al]

IC50 [2, 3]: 0.31 ± 0.08 µM
IC50 ([2]; read-out: IC50, in vitro CT-L): 0.3 to 0.5 µM
SMILES: Cc1ccc(OCC(=O)N(Cc2nc(-c3ccccc3)no2)C(C)C)cc1 [11m, N-isopropyl-N-((3-phenyl-1,2,4-oxadiazol-5-yl)methyl)-2-(p-tolyloxy)acetamide]

IC50 [2, 3]: 0.45 ± 0.15 µM
IC50 ([2]; read-out: IC50, in vitro CT-L): ~1 µM
SMILES: Cc1ccc(OCC(=O)N(Cc2nc(-c3ccc(Cl)cc3)no2)C(C)C)cc1 [11i, N-((3-(4-chlorophenyl)-1,2,4-oxadiazol-5-yl)methyl)-N-isopropyl-2-(p-tolyloxy)acetamide]

fold improved CT-L activity ([2]; compared to the hit 1 (PI-1833)): 6 fold
IC50 ([2]; read-out: IC50, in vitro CT-L): 0.099 ± 0.03 µM
SMILES: CCc1ccc(OCC(=O)N(Cc2nc(-c3cccnc3)no2)C(C)C)cc1 [11ab, 2-(4-Ethylphenoxy)-N-isopropyl-N-((3-pyridin-3-yl)1,2,4-oxadiazol-5-yl)methylacetamide]

Second part, the compound before the results:

SMILES: Cc1ccc(OCC(=O)N(Cc2nc(-c3ccc(C)cc3)no2)C(C)C)cc1 [compound 1, N-Isopropyl-N-((3-p-tolyl-1,2,4-oxadiazol-5-yl)methyl)-2-(p-tolyloxy)acetamide]
IC50 ([1]; MDA-MB-468 breast cancer cells, read-out: whole cell IC50 activity): 1.1 µM and 1 µM
IC50 [2, 3]: 0.63 ± 0.35 µM
IC50 [2, 4]: 0.63 ± 0.35 µM
IC50 [2, 5]: 0.716 ± 0.27 µM
IC50 ([2]; read-out: IC50, in vitro CT-L): 0.65 ± 0.39 µM

SMILES: Cc1ccc(OCC(=O)N(Cc2nc(-c3ccc(C)cc3)no2)C(C)C)cc1 [drawing 107]
IC50 ([1]; Table 5, MDA-MB-468, read-out: Whole cell IC50 (μM) Chymotrypsin-like): 1.1 µM
IC50 [2, 6]: 0.63 ± 0.35 µM

SMILES: CC(C)N(Cc1nc(-c2ccccc2)no1)C(=O)CCc1ccc(C(F)(F)F)cc1 [drawing 180]
IC50 ([2]; Table 8, 20S CT-L proteasome activity, read-out: IC50 (μM) CT-L): 15.7 µM

SMILES: CCCCc1ccc(OCC(=O)N(Cc2nc(-c3cccnc3)no2)C(C)C)cc1 [drawing 159]
IC50 [2, 6]: 0.039 ± 0.011 µM

SMILES: Cc1ccc(OCC(=O)N(Cc2nc(-c3ccc(C)cc3)no2)CC(C)C)cc1 [compound 36]
CT-L inhibitory activity, in words [2]: loss of CT-L proteasome activity
IC50 [2, 5]: 2.37 ± 0.4 µM

SMILES: O=C(COc1ccc(C(F)(F)F)cc1)N(Cc1nc(-c2ccccc2)no1)C1CC1 [drawing 135]
Screening Results (% Inhibition @ 10 μM) Chymotrypsin-like [2]: 35.35% and 33.80%
inhibition at 10 µM [2]: 27.3%
IC50 [2, 6]: 6.37 µM

SMILES: CCCCc1ccc(OCC(=O)N(Cc2nc(-c3cnccn3)no2)C(C)C)cc1 [drawing 166]
IC50 [2, 6]: 0.107 ± 0.013 µM

SMILES: Cc1ccc(OCC(=O)N(Cc2nc(-c3ccc(C)cc3)no2)C2CC2)cc1 [drawing 172]
inhibition at 10 µM [2]: -8.36 ± 19%

SMILES: Cc1ccc(OCC(=O)N(Cc2nc3ccccc3[nH]2)C(C)C)cc1 [drawing 151]
inhibition at 10 µM [2]: 80.4 ± 3.04%
IC50 [2, 6]: 12.5 ± 2.96 µM

SMILES: CC(C)N(Cc1nc(-c2ccccc2)no1)C(=O)CCc1ccc(C(F)(F)F)cc1 [drawing 130]
IC50 [2, 6]: 44 ± 20.9 µM

SMILES: CC(C)N(Cc1nc(-c2ccccc2)no1)C(=O)COc1ccc(C(F)(F)F)cc1 [drawing 116]
IC50 [2, 6]: 0.43 ± 0.12 µM

SMILES: Cc1ccc(OCC(=O)N(Cc2nc(-c3ccc(Cl)cc3)no2)C(C)C)cc1 [drawing 113]
IC50 [2, 6]: 0.45 ± 0.15 µM

SMILES: Cc1cccc(OCC(=O)N(Cc2nc(-c3ccccc3)no2)C(C)C)c1 [drawing 136]
inhibition at 10 µM [2]: < 70%

SMILES: CCCCCc1ccc(OCC(=O)N(Cc2nc(-c3cccnc3)no2)C(C)C)cc1 [drawing 164]
IC50 [2, 6]: 0.121 ± 0.04 µM

SMILES: CC(C)N(Cc1nc(-c2ccccc2)no1)C(=O)COc1ccc(C(=O)OC(C)(C)C)cc1 [drawing 141]
inhibition at 10 µM [2]: -62 ± 26.3%

SMILES: Cc1ccc(CNC(=O)N(Cc2nc(-c3ccccc3)no2)C(C)C)cc1 [SO2-024, 1-Isopropyl-3-(4-methylbenzyl)-1-((3-phenyl-1,2,4-oxadiazol-5-yl)methyl)urea]
IC50 ([2]; Table 10, read-out: IC50 (μM) CT-L): > 10 µM
IC50 ([2]; read-out: IC50, in vitro CT-L): > 10 µM

SMILES: CC(C)CC(NC(=O)c1ccc(OCC(=O)N(Cc2nc(-c3ccccc3)no2)C(C)C)cc1)C(=O)O (stereo not shown) [drawing 146]
Screening Results (% Inhibition @ 10 μM) Chymotrypsin-like [2]: −174.75 ± 134.18 (n = 5) %

SMILES: Cc1ccc(-c2noc(CN(C(=O)COc3ccc(Cl)cc3)C(C)C)n2)cc1 [drawing 123]
IC50 [2, 6]: 1.12 ± 0.33 µM

SMILES: CC(C)CC(NC(=O)c1ccc(OCC(=O)N(Cc2nc(-c3ccccc3)no2)C(C)C)cc1)C(=O)O (stereo not shown) [drawing 153]
Screening Results (% Inhibition @ 10 μM) Chymotrypsin-like [2]: −149.24 ± 157.49 (n = 5) %

SMILES: Cc1ccc(NCC(=O)N(Cc2nc(-c3ccccc3)no2)C(C)C)cc1 [drawing 148]
inhibition at 10 µM [2]: 81.5 ± 2.77%
IC50 [2, 6]: 5.67 ± 0.96 µM

SMILES: CCCc1ccc(OCC(=O)N(Cc2nc(-c3cccnc3)no2)C(C)C)cc1 [drawing 157]
inhibition at 10 µM [2]: 92.3 ± 2.19%
IC50 [2, 6]: 0.032 ± 0.00015 µM

SMILES: Cc1ccc(OCC(=O)N(Cc2nc(-c3ccccc3)no2)C(C)C)cc1 [drawing 117]
IC50 [2, 6]: 0.31 µM

SMILES: Cc1ccc(O[C@H](C)C(=O)N(Cc2nc(-c3cccnc3)no2)C(C)C)cc1 [drawing 163]
IC50 [2, 6]: 7.52 ± 2.13 µM

SMILES: Cc1ccc(OCC(=O)N(Cc2nc(-c3ccccc3)no2)C(C)C)cn1 [drawing 154]
inhibition at 10 µM [2]: 70.6 ± 5.09%
IC50 [2, 6]: 4 ± 0.89 µM

SMILES: Cc1ccc(OC(C)C(=O)N(Cc2nc(-c3ccccc3)no2)C(C)C)cc1 (stereo not shown)
inhibition at 10 µM [2]: 92.43 ± 0.82%
IC50 [2, 6]: 0.92 ± 0.21 µM

SMILES: CCc1ccc(OCC(=O)N(Cc2nc(-c3cccnc3)no2)C(C)C)cc1 [drawing 145]
IC50 [2, 6]: 0.099 ± 0.032 µM

SMILES: CCCc1ccc(OCC(=O)N(Cc2nc(-c3ncccn3)no2)C(C)C)cc1 [drawing 174]
IC50 [2, 6]: 1.27 ± 0.226 µM

SMILES: Cc1ccc(OCC(=O)N(Cc2nc(-c3ccc(C)cc3)no2)CC(C)C)cc1 [drawing 111]
IC50 [2, 6]: 2.37 ± 0.4 µM

SMILES: Cc1ccc(NCC(=O)N(Cc2nc(-c3ccccc3)no2)C(C)C)cc1 [SO2-090, N-Isopropyl-N-((3-phenyl-1,2,4-oxadiazol-5-yl)methyl)-2-(p-tolylamino)acetamide]
IC50 ([2]; read-out: IC50, in vitro CT-L): 5.67 µM

SMILES: CC(C)N(Cc1nc(-c2ccc(Cl)cc2)no1)C(=O)COc1ccc(Cl)cc1 [drawing 119]
IC50 [2, 6]: 1.07 ± 0.05 µM
